Measured values as given in US8426429B2, “2-amino-quinazoline derivatives useful as inhibitors of β-secretase (BACE)” (Jansssen Pharmaceutica N.V., priority 2004, dated 2013).

Molecular target: T1, β-secretase (BACE) (Homo sapiens, UniProt P56817)
T1 construct: purchased Panvera
Experiment: BACE FS1 % Inhibition Assay
Assay type: biochemical
Experimental: The following reagents were used in this assay: sodium acetate, PEG8000 (Sigma), DMSO, HEPES, FS1 substrate [[…]] […] The FS1-substrate stock solution was prepared in DMSO as a 10 mg/mL solution. The FS1-substrate working solution was prepared by diluting the 10 mg/mL stock solution with substrate assay buffer to a final concentration of 300 μg/mL. The β-secretase (BACE) working solution was prepared by diluting a 0.83 mg/mL BACE stock solution with enzyme assay buffer to a final concentration of 4 μg/mL. Test compounds were dissolved in DMSO to 10 mM. […] The screening procedure for this assay was as follows: 15 μL of BACE working solution was pipetted into each well of a 96-well plate. To each well was then pipetted 2 μL of test compound at the selected concentration. Test compound and BACE were then mixed with a pipettor and incubated for 20 min at room temperature. To each well was then added 10 μL of the FS1 substrate working solution. The plates were then incubated for 1 hour at room temperature. […] The procedure for the blank was as follows. 15 μL of assay buffer was pipetted into each well to be used as a blank control. To each well was then added 2 μL of vehicle and 10 μL of FS1-substrate working solution. The plates were then incubated for 1 hour at room temperature. […] The procedure for the positive control was as follows: 15 μL of BACE working solution was pipetted into each well to be used as a positive control. To each well was then pipetted 2 μL of vehicle. Vehicle and BACE were then mixed with a pipettor and incubated for 20 min at room temperature. To each well was then added 10 μL of the FS1 substrate working solution. The plates were then incubated for 1 hour at room temperature. […] For test compounds, % inhibition was determined at each concentration as follows: [formula]

T1 sequence (P56817 46-501): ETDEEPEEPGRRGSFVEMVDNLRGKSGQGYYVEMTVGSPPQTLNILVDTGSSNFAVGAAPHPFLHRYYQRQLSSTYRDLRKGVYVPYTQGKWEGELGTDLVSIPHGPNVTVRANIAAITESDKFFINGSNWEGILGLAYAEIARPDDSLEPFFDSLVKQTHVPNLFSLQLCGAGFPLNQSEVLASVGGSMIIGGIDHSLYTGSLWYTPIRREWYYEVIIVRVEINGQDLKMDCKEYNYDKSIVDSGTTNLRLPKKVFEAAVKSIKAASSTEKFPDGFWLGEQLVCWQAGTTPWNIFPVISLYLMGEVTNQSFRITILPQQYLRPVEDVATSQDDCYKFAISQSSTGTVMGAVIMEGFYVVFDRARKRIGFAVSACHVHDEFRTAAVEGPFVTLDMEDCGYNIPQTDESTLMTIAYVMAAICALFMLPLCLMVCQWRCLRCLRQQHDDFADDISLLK

| % Inhibition (FS) (0.3 μM test compound) [%] | % Inhibition (FS) (1 μM test compound) [%] | % Inhibition (FS) (3 μM test compound) [%] | further results | SMILES |
| --- | --- | --- | --- | --- |
|  |  |  | % Inhibition (FS) (0.3 μM compound, FS1 substrate): <30%; % Inhibition (FS) (1 μM compound, FS1 substrate): <30%; % Inhibition (FS) (3 μM compound, FS1 substrate): 84% | Cc1ccccc1-c1ccc2c(c1)CN(CCNC(=O)C1CCC(C(F)(F)F)CC1)C(N)=N2 (centres unmarked) [Compound 694] |
| <30 | <30 | <30 |  | CC(=O)Nc1ccc(C(=O)NCCN2Cc3cc(-c4ccccc4)ccc3N=C2N)cc1 [Compound 591] |
| <30 | <30 | 77 |  | NC1=Nc2ccc(Oc3ccccc3)cc2CN1CCC(=O)N(C1CCCCC1)C1CCCCC1 [Compound 180] |
| <30 | 30 | 70 |  | CN(C(=O)CCC(C1CCCCC1)N1Cc2cc(Oc3ccccc3)ccc2N=C1N)C1CCOCC1 (centres unmarked) [Compound 633] |
| <30 | <30 | 90 |  | CN(C(=O)c1ccc(CN2Cc3cc(Oc4ccccc4)ccc3N=C2N)s1)C1CCCCC1 [Compound 503] |
| 72 | 94 | 112 |  | NC1=Nc2ccc(-c3ccccc3Cl)cc2CN1CCNC(=O)C1CCCC1 [Compound 650] |
| <30 | <30 | <30 |  | CCCC=Cc1ccc2c(c1)CN(CCNC(=O)Cc1ccccc1)C(N)=N2 [Compound 596] |
|  |  |  | % Inhibition (FS) (0.3 μM test compound, 0.3 µM): <30%; % Inhibition (FS) (1 μM test compound, 1 µM): <30%; % Inhibition (FS) (3 μM test compound, 3 µM): 42% | CCCC(CNC(=O)C1CCCCC1)N1Cc2cc(Oc3ccccc3)ccc2N=C1N (centres unmarked) [Compound 554] |
| <30 | <30 | <30 |  | CC(C)(C)OC(=O)Nc1cccc(CN2Cc3cc(Oc4ccccc4)ccc3N=C2N)c1 [Compound 224] |
| <30 | 36 | <30 |  | NC1=Nc2ccc(Oc3ccccc3)cc2CN1C1CCCN(C(=O)C2CCCCC2)C1 (centres unmarked) [Compound 611] |
| 39 | 74 | 104 |  | CCCCC(CC)C(=O)NCCN1Cc2cc(-c3ccccc3F)ccc2N=C1N (centres unmarked) [Compound 648] |
| <30 | 35 | 72 |  | CCOc1cccc(Nc2ccc3c(c2)CN(Cc2cccc(C(=O)N(C)C4CCCCC4)c2)C(N)=N3)c1 [Compound 440] |
| <30 | 53 | 99 |  | CC(C)C(CC(=O)NC1C2CC3CC(C2)CC1C3)N1Cc2cc(Oc3ccccc3)ccc2N=C1N (centres unmarked) [Compound 402] |
|  |  |  | % Inhibition (FS) (0.3 μM compound, FS1 substrate): <30%; % Inhibition (FS) (1 μM compound, FS1 substrate): <30%; % Inhibition (FS) (3 μM compound, FS1 substrate): 52% | NC1=Nc2ccc(-c3ccccc3Cl)cc2CN1CCNC(=O)C1CCC(C(F)(F)F)CC1 (centres unmarked) [Compound 690] |
| 52 | 72 | 97 |  | CC(C)(C)C(=O)NCCN1Cc2cc(-c3ccccc3F)ccc2N=C1N [Compound 646] |
| <30 | <30 | 49 |  | COc1ccccc1Sc1ccc2c(c1)CN(Cc1cccc(C(=O)N(C)C3CCCCC3)c1)C(N)=N2 [Compound 412] |
| <30 | 37 | 50 |  | CN(C(=O)c1cccc(CN2Cc3cc(Nc4ccc5ccccc5c4)ccc3N=C2N)c1)C1CCCCC1 [Compound 436] |
| <30 | <30 | 46 |  | NC1=Nc2ccc(Oc3ccccc3)cc2CN1Cc1cccc(CNC(=O)C2CCCCC2)c1 [Compound 306] |
|  |  | 39 | % Inhibition (FS) (10 μM test compound): 59% | NC1=Nc2ccc(Oc3ccccc3)cc2CN1CCCNC(=O)C1CCC1 [Compound 144] |

| % Inhibition (FS) (0.3 μM test compound) [%] | % Inhibition (FS) (1 μM test compound) [%] | % Inhibition (FS) (3 μM test compound) [%] | further results | SMILES |
| --- | --- | --- | --- | --- |
| 74 | 103 | 115 |  | NC1=Nc2ccc(Oc3ccccc3)cc2CN1C(CNC(=O)C12CC3CC(CC(C3)C1)C2)C1CCCCC1 (centres unmarked) [Compound 312] |
|  |  | 97 | % Inhibition (FS) (10 μM test compound): 108% | CCCC(CCC(=O)NC1CCCCCC1)N1Cc2cc(Oc3ccccc3)ccc2N=C1N (centres unmarked) [Compound 128] |
| <30 | 26 | 62 |  | NC1=Nc2ccc(Oc3ccccc3)cc2CN1CCNCC1CCCCC1 [Compound 427] |
| <30 | 58 | 101 |  | CSc1ccc(Nc2ccc3c(c2)CN(Cc2cccc(C(=O)N(C)C4CCCCC4)c2)C(N)=N3)cc1 [Compound 442] |
| <30 | <30 | <30 |  | CN1CCC(N(C)C(=O)c2cccc(CN3Cc4cc(Oc5ccccc5)ccc4N=C3N)c2)CC1 [Compound 223] |
| <30 | <30 | <30 |  | C[C@@H](CNC(=O)C1CCCCC1)N1Cc2cc(Oc3ccccc3)ccc2N=C1N [Compound 486] |
|  |  |  | % Inhibition (FS) (0.3 μM test compound, 0.3 µM): <30%; % Inhibition (FS) (1 μM test compound, 1 µM): <30%; % Inhibition (FS) (3 μM test compound, 3 µM): 46% | CCCC(CNC(=O)C12CC3CC(CC(C3)C1)C2)N1Cc2cc(Oc3ccccc3)ccc2N=C1N (centres unmarked) [Compound 555] |
| <30 | <30 | <30 |  | COc1cccc(COc2ccc3c(c2)CN(Cc2cccc(C(=O)N(C)C4CCCCC4)c2)C(N)=N3)c1 [Compound 514] |
|  |  |  | % Inhibition (FS) (0.3 μM compound, FS1 substrate): 66%; % Inhibition (FS) (1 μM compound, FS1 substrate): 97% | CCCCC(CC)C(=O)NCCN1Cc2cc(-c3ccccc3C)ccc2N=C1N (centres unmarked) [Compound 662] |
|  |  | 40 | % Inhibition (FS) (10 μM test compound): 105% | NC1=Nc2ccc(Oc3ccccc3)cc2CN1CCCCNC(=O)C1CCCCC1 [Compound 115] |
|  |  |  | % Inhibition (FS) (0.3 μM compound, FS1 substrate): <30%; % Inhibition (FS) (1 μM compound, FS1 substrate): <30%; % Inhibition (FS) (3 μM compound, FS1 substrate): <30% | NC1=Nc2ccc(C3=CCCC3)cc2CN1CCNC(=O)C1CCC(C(F)(F)F)CC1 (centres unmarked) [Compound 707] |
| 43 | 106 | 118 |  | Cc1cccc(Sc2ccc3c(c2)CN(Cc2cccc(C(=O)N(C)C4CCCCC4)c2)C(N)=N3)c1 [Compound 405] |
|  |  |  | % Inhibition (FS) (0.3 μM compound, FS1 substrate): <30%; % Inhibition (FS) (1 μM compound, FS1 substrate): <30%; % Inhibition (FS) (3 μM compound, FS1 substrate): <30% | CN(C(=O)CCC(C1CCCCC1)N1Cc2cc(Oc3ccccc3)ccc2N=C1N)c1ccc(C(=O)O)cc1 (centres unmarked) [Compound 766] |
| <30 | <30 | 58 |  | CCCC(CCC)C(=O)N1CCC(N2Cc3cc(Oc4ccccc4)ccc3N=C2N)CC1 [Compound 523] |
| <30 | <30 | 77 |  | NC1=Nc2ccc(Oc3ccccc3)cc2CN1C(CC(=O)NC1CCCCC1)C1CCCCC1 (centres unmarked) [Compound 300] |
| <30 | <30 | <30 |  | CN(C)c1ccc(C(=O)NCCN2Cc3cc(Oc4ccccc4)ccc3N=C2N)cc1 [Compound 189] |
| <30 | 34 | <30 |  | CN(C(=O)c1cccc(CN2Cc3cc(C=Cc4ccccc4)ccc3N=C2N)c1)C1CCCCC1 [Compound 266] |
| 101 | 114 | 122 |  | CCC[C@H](CNC(=O)CCC(C)C)N1Cc2cc(Oc3ccccc3)ccc2N=C1N [Compound 603] |
